Laboratory results reported in PubChem BioAssay (NCI).
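Exposure lasted 48 hours, with cells grown in 96-well plates and compounds tested at five concentrations. The concentration for 50% growth inhibition is given as GI50. TGI denotes the concentration required for complete inhibition of growth.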

Tests used:
Test in all cases: NCI anticancer screen, dose series, 48 h
SK-MEL-28 melanoma = system: SK-MEL-28 melanoma
SR leukemia = system: SR leukemia
OVCAR-5 ovarian = system: OVCAR-5 ovarian
HOP-92 NSCLC = system: HOP-92 NSCLC
SN12C renal = system: SN12C renal
IGROV1 ovarian = system: IGROV1 ovarian
SK-OV-3 ovarian = system: SK-OV-3 ovarian
K-562 leukemia = system: K-562 leukemia
PC-3 prostate = system: PC-3 prostate
DU-145 prostate = system: DU-145 prostate

| SMILES | TGI (SK-MEL-28 melanoma) [µM] | TGI (SR leukemia) [µM] | TGI (OVCAR-5 ovarian) [µM] | TGI (HOP-92 NSCLC) [µM] | TGI (SN12C renal) [µM] | TGI (IGROV1 ovarian) [µM] | TGI (SK-OV-3 ovarian) [µM] | TGI (K-562 leukemia) [µM] | GI50 (SK-MEL-28 melanoma) [µM] | GI50 (PC-3 prostate) [µM] | TGI (PC-3 prostate) [µM] | GI50 (OVCAR-5 ovarian) [µM] | GI50 (SN12C renal) [µM] | GI50 (DU-145 prostate) [µM] | TGI (DU-145 prostate) [µM] | GI50 (IGROV1 ovarian) [µM] | GI50 (SK-OV-3 ovarian) [µM] | GI50 (K-562 leukemia) [µM] | GI50 (SR leukemia) [µM] | GI50 (HOP-92 NSCLC) [µM] |
| --- | --- | --- | --- | --- | --- | --- | --- | --- | --- | --- | --- | --- | --- | --- | --- | --- | --- | --- | --- | --- |
| COC(=O)C1Cc2c(n(C)c3ccccc23)C(c2ccccc2)N1 (stereo not drawn) | > 100 | > 100 | > 100 | > 100 | > 100 | > 100 | > 100 | > 100 | – | – | – | – | – | – | – | – | – | – | – | – |
| C=CC[P@@]1(=O)O[C@H](c2ccccc2)C(C)N1C(C)C (stereo partly drawn) | > 100 | > 100 | > 100 | – | > 100 | > 100 | > 100 | > 100 | – | – | – | – | – | – | – | – | – | – | – | – |
| CS(=O)(=O)c1ccc(Oc2nccc(-c3c(-c4ccc(F)cc4)ncn3C3CCNCC3)n2)cc1 | > 25 | – | > 25 | – | > 25 | > 25 | > 25 | > 14.9 | > 25 | > 25 | > 25 | > 25 | > 25 | > 25 | > 25 | > 25 | > 25 | > 9.38 | – | – |
| O=[N+]([O-])c1ccc(OCCNc2cccc3ccccc23)cc1 | > 100 | – | > 100 | > 100 | > 100 | > 100 | > 100 | > 100 | – | – | – | – | – | – | – | – | – | – | – | – |
| O=C1C(c2ccc(Cl)cc2)=[N+]([O-])c2ccccc21 | 28.5 | > 100 | 48.7 | – | 32.4 | 33.9 | > 100 | 68.5 | – | – | – | – | – | – | – | – | – | – | – | – |
| O=[N+]([O-])c1ccc2c(c1)OCCOCCOc1ccc([N+](=O)[O-])cc1OCCOCCO2 | > 100 | > 100 | > 100 | – | > 100 | > 100 | > 100 | > 100 | – | – | – | – | – | – | – | – | – | – | – | – |
| CC1=CCP(C(F)(F)F)P(C(F)(F)F)C1 (stereo not drawn) | > 100 | > 100 | > 100 | > 100 | > 100 | > 100 | > 100 | > 100 | – | – | – | – | – | – | – | – | – | – | – | – |
| N#C[C@]12CC3(CC[C@H]1CC1(C2)OCCO1)OCCO3 | > 100 | > 100 | – | – | > 100 | > 100 | > 100 | > 100 | – | – | – | – | – | – | – | – | – | – | – | – |
| Cc1cc(N(CCC#N)CCC#N)ccc1N=Nc1ccccc1[N+](=O)[O-] | > 100 | – | > 100 | – | > 100 | > 100 | > 100 | > 100 | – | – | – | – | – | – | – | – | – | – | – | – |
| CCCCCCC(O)C/C=C/CCCCCC/C(C(=O)OC)=C(/O)C(=O)OCC (stereo not drawn) | > 100 | > 100 | > 100 | > 100 | > 100 | > 100 | > 100 | > 100 | – | – | – | – | – | – | – | – | – | – | – | – |
| Cc1ccc(C)c(NC(=O)CC2C(=O)Nc3ccccc3S2(=O)=O)c1 (stereo not drawn) | > 100 | > 100 | > 100 | > 100 | > 100 | > 100 | – | > 100 | – | – | – | – | – | – | – | – | – | – | – | – |
| CC(=O)CC(=O)CCCC(=O)Nc1ccc(Cl)cc1Cl | > 100 | > 100 | > 100 | > 100 | > 100 | > 100 | > 100 | > 100 | – | – | – | – | – | – | – | – | – | – | – | – |
| N.N.NCCCCN.O=C([O-])CC(=O)[O-].O=C([O-])CC(=O)[O-].[Pt+4].[Pt+4] | > 100 | > 100 | > 100 | > 100 | > 100 | > 100 | > 100 | > 100 | > 100 | – | – | > 100 | 58.5 | – | – | > 100 | > 100 | > 100 | 30.4 | > 100 |
| COC(=O)C(=O)C(C(=O)C(=O)Nc1ccc([N+](=O)[O-])cc1[N+](=O)[O-])c1nc2ccc([N+](=O)[O-])cc2[nH]c1=O (stereo not drawn) | – | > 100 | > 100 | > 100 | > 100 | > 100 | > 100 | > 100 | – | – | – | – | – | – | – | – | – | – | – | – |
| CN(C)CCN1N=Nc2cccc3cccc1c23 | > 100 | 40.2 | > 100 | > 100 | > 100 | > 100 | > 100 | > 100 | – | – | – | – | – | – | – | – | – | – | – | – |
| O=C1C2c3[nH]c4ccccc4c3C3CCSCC3C2C(=O)N1c1ccccc1 (stereo not drawn) | > 100 | – | > 100 | > 100 | > 100 | > 100 | > 100 | > 100 | – | – | – | – | – | – | – | – | – | – | – | – |
| COC1CCC2C(=O)CCCC2O1 (stereo not drawn) | – | > 100 | > 100 | > 100 | > 100 | > 100 | > 100 | > 100 | – | – | – | – | – | – | – | – | – | – | – | – |
| CC1(c2ccccc2)CC12C(=O)NC(=O)NC2=O (stereo not drawn) | > 100 | > 100 | > 100 | > 100 | > 100 | > 100 | > 100 | > 100 | – | – | – | – | – | – | – | – | – | – | – | – |
